Reference: patent publication US6737383B1, “Herbicidal oxadiazolidines” (priority 1999, dated 2004)

How the values were obtained:
[1] = test system: rape; experiment: Test B pre/postemergence rape; format: in vivo, Brassica napus
Outline: (§1)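 Herbicidal effect was estimated by eye on a ten-point control scale after plants spent twelve to sixteen days in a greenhouse following soil or foliar treatment. Foliar sprays targeted plants at one to four leaves; all doses were formulated in a non-phytotoxic solvent with surfactant.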

[2] = test system: pigweed; experiment: Test B pre/postemergence pigweed; format: in vivo, Amaranthus retroflexus
Outline: as §1

[3] = test system: purple nutsedge; experiment: Test B pre/postemergence purple nutsedge; format: in vivo, Cyperus rotundus
Outline: as §1

[4] = test system: rice; experiment: Test B flood test rice; format: in vivo, Oryza sativa
Outline: (§2)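 Each value is a visual injury score relative to controls, with 10 meaning complete control and 0 no effect. Evaluation took place twelve to sixteen days after the 2-leaf-stage plants were treated and kept in the greenhouse.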

[5] = test system: blackgrass; experiment: Test B pre/postemergence blackgrass; format: in vivo, Alopecurus myosuroides
Outline: as §1

[6] = test system: morningglory; experiment: Test B pre/postemergence morningglory; format: in vivo, Ipomoea hederacea
Outline: as §1

[7] = test system: cocklebur; experiment: Test B pre/postemergence cocklebur; format: in vivo, Xanthium strumarium
Outline: as §1

[8] = test system: velvetleaf; experiment: Test B pre/postemergence velvetleaf; format: in vivo, Abutilon theophrasti
Outline: as §1

[9] = test system: bedstraw; experiment: Test B pre/postemergence bedstraw; format: in vivo, Galium aparine
Outline: as §1

[10] = test system: sugar beet; experiment: Test B pre/postemergence sugar beet; format: in vivo, Beta vulgaris
Outline: as §1

[11] = test system: wild oat; experiment: Test B pre/postemergence wild oat; format: in vivo, Avena fatua
Outline: as §1

[12] = test system: smallflower flatsedge; experiment: Test B flood test smallflower flatsedge; format: in vivo, Cyperus difformis
Outline: as §2

[13] = test system: bamyardgrass; experiment: Test B flood test barnyardgrass; format: in vivo, Echinochloa crus-galli
Outline: as §2

[14] = test system: soybean; experiment: Test B pre/postemergence soybean; format: in vivo, Glycine max
Outline: as §1

[15] = test system: surinam grass; experiment: Test B pre/postemergence surinam grass; format: in vivo, Brachiaria decumbens
Outline: as §1

[16] = test system: corn; experiment: Test B pre/postemergence corn; format: in vivo, Zea mays
Outline: as §1

[17] = Postemergence, Rate 125 g/ha, scale of 0 to 10 where 0 is no effect and 10 is complete control
[18] = Preemergence, Rate 62 g/ha, scale 0 to 10 (0 no effect, 10 complete control)
[19] = Preemergence, Rate 125 g/ha, 0 is no effect, 10 is complete control
[20] = Preemergence, Rate 250 g/ha, scale 0 to 10, 0 is no effect, 10 is complete control
[21] = Preemergence, Rate 500 g/ha, scale 0 to 10 (0 no effect, 10 complete control)
[22] = Rate 62 g/ha, Postemergence, scale of 0 to 10 where 0 is no effect and 10 is complete control
[23] = Rate 250 g/ha, Postemergence, scale 0 to 10, 0 is no effect, 10 is complete control
[24] = Rate 500 g/ha, Postemergence, scale 0 to 10
[25] = Postemergence (flood test species), Rate 125 g/ha, scale of 0 to 10 where 0 is no effect and 10 is complete control
[26] = Rate 250 g/ha, Postemergence (flood test), scale 0 to 10, 0 is no effect, 10 is complete control
[27] = Rate 500 g/ha, listed under Postemergence (flood test species), scale 0 to 10

SMILES: CCOC(=O)Cn1c(=O)on(C(=O)N(c2ccc(F)cc2)C(C)C)c1=O [Compound 128]
- Rape plant response rating [1, 17]: 0
- Rape plant response rating [1, 18]: 0
- Rape plant response rating (0 to 10 scale) [1, 19]: 0
- Rape plant response rating [1, 20]: 0
- Rape plant response rating [1, 21]: 0
- Rape plant response rating [1, 22]: 0
- Plant response rating, Rape [1, 23]: 0
- Rape plant response rating [1, 24]: 0
- Redroot pigweed plant response rating [2, 17]: 0
- Redroot pigweed plant response rating [2, 18]: 0
- Redroot pigweed plant response rating (0 to 10 scale) [2, 19]: 0
- Redroot pigweed plant response rating [2, 20]: 0
- Redroot pigweed plant response rating [2, 21]: 0
- Redroot pigweed plant response rating [2, 22]: 0
- Plant response rating, Redroot pigweed [2, 23]: 0
- Redroot pigweed plant response rating [2, 24]: 0
- Nutsedge plant response rating [3, 17]: 0
- Nutsedge plant response rating [3, 18]: 0
- Nutsedge plant response rating (0 to 10 scale) [3, 19]: 0
- Nutsedge plant response rating [3, 20]: 0
- Nutsedge plant response rating [3, 21]: 0
- Nutsedge plant response rating [3, 22]: 0
- Plant response rating, Nutsedge [3, 23]: 0
- Nutsedge plant response rating [3, 24]: 0
- Rice plant response rating [4, 25]: 0
- Plant response rating, Rice [4, 26]: 0
- Rice plant response rating [4, 27]: 0
- Blackgrass plant response rating [5, 17]: 0
- Blackgrass plant response rating [5, 18]: 0
- Blackgrass plant response rating (0 to 10 scale) [5, 19]: 0
- Blackgrass plant response rating [5, 20]: 0
- Blackgrass plant response rating [5, 21]: 2
- Blackgrass plant response rating [5, 22]: 0
- Plant response rating, Blackgrass [5, 23]: 0
- Blackgrass plant response rating [5, 24]: 0
- Morningglory plant response rating [6, 17]: 0
- Morningglory plant response rating [6, 18]: 0
- Morningglory plant response rating (0 to 10 scale) [6, 19]: 0
- Morningglory plant response rating [6, 20]: 0
- Morningglory plant response rating [6, 21]: 0
- Morningglory plant response rating [6, 22]: 0
- Plant response rating, Morningglory [6, 23]: 0
- Morningglory plant response rating [6, 24]: 0
- Cocklebur plant response rating [7, 17]: 0
- Cocklebur plant response rating [7, 18]: 0
- Cocklebur plant response rating (0 to 10 scale) [7, 19]: 0
- Cocklebur plant response rating [7, 20]: 0
- Cocklebur plant response rating [7, 21]: 0
- Cocklebur plant response rating [7, 22]: 0
- Plant response rating, Cocklebur [7, 23]: 0
- Cocklebur plant response rating [7, 24]: 0
- Velvetleaf plant response rating [8, 17]: 0
- Velvetleaf plant response rating [8, 18]: 0
- Velvetleaf plant response rating (0 to 10 scale) [8, 19]: 0
- Velvetleaf plant response rating [8, 20]: 0
- Velvetleaf plant response rating [8, 21]: 0
- Velvetleaf plant response rating [8, 22]: 0
- Plant response rating, Velvetleaf [8, 23]: 0
- Velvetleaf plant response rating [8, 24]: 0
- Bedstraw plant response rating [9, 17]: 0
- Bedstraw plant response rating [9, 18]: 0
- Bedstraw plant response rating (0 to 10 scale) [9, 19]: 0
- Bedstraw plant response rating [9, 20]: 0
- Bedstraw plant response rating [9, 21]: 0
- Bedstraw plant response rating [9, 22]: 0
- Plant response rating, Bedstraw [9, 23]: 0
- Bedstraw plant response rating ([9]; Rate 500 g/ha, Postemergence, scale 0 to 10, 0 no effect, 10 complete control): 0
- Sugarbeets plant response rating [10, 17]: 0
- Sugarbeets plant response rating [10, 18]: 0
- Sugarbeets plant response rating (0 to 10 scale) [10, 19]: 0
- Sugarbeets plant response rating [10, 20]: 0
- Sugarbeets plant response rating [10, 21]: 0
- Sugarbeets plant response rating [10, 22]: 0
- Plant response rating, Sugarbeets [10, 23]: 0
- Sugarbeets plant response rating [10, 24]: 0
- Wild oats plant response rating [11, 17]: 0
- Wild oats plant response rating [11, 18]: 0
- Wild oats plant response rating (0 to 10 scale) [11, 19]: 0
- Wild oats plant response rating [11, 20]: 0
- Wild oats plant response rating [11, 21]: 0
- Wild oats plant response rating [11, 22]: 0
- Plant response rating, Wild oats [11, 23]: 0
- Wild oats plant response rating [11, 24]: 0
- S. Flatsedge plant response rating [12, 25]: 0
- Plant response rating, S. Flatsedge [12, 26]: 0
- S. Flatsedge plant response rating [12, 27]: 0
- Barnyardgrass plant response rating [13, 25]: 0
- Plant response rating, Barnyardgrass [13, 26]: 0
- Barnyardgrass plant response rating ([13]; Rate 500 g/ha, listed under Postemergence (flood test species), scale 0 to 10, 0 no effect, 10 complete control): 0
- Soybean plant response rating [14, 17]: 0
- Soybean plant response rating [14, 18]: 0
- Soybean plant response rating (0 to 10 scale) [14, 19]: 0
- Soybean plant response rating [14, 20]: 0
- Soybean plant response rating [14, 21]: 0
- Soybean plant response rating [14, 22]: 0
- Plant response rating, Soybean [14, 23]: 0
- Soybean plant response rating [14, 24]: 0
- B. signalgrass plant response rating [15, 17]: 0
- B. signalgrass plant response rating [15, 18]: 0
- B. signalgrass plant response rating (0 to 10 scale) [15, 19]: 0
- B. signalgrass plant response rating [15, 20]: 0
- B. signalgrass plant response rating [15, 21]: 0
- B. signalgrass plant response rating [15, 22]: 0
- Plant response rating, B. signalgrass [15, 23]: 0
- B. signalgrass plant response rating ([15]; Rate 500 g/ha, Postemergence, scale of 0 to 10 where 0 is no effect and 10 is complete control): 0
- Corn plant response rating [16, 17]: 0
- Corn plant response rating [16, 18]: 0
- Corn plant response rating (0 to 10 scale) [16, 19]: 0
- Corn plant response rating [16, 20]: 0
- Corn plant response rating [16, 21]: 0
- Corn plant response rating [16, 22]: 0
- Plant response rating, Corn [16, 23]: 0
- Corn plant response rating [16, 24]: 0
